Legend:
HeLa = experiment: MTS proliferation assay; type: cell-based, human; details: 72 h
Summary of the method: (§1)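 Proliferation is assessed by MTS conversion, measured as 492 nm absorption. Cells are treated for three days (72 h) with four compound concentrations between 0.3 and 10 μM.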

Jurkat = experiment: MTS proliferation assay; type: cell-based, human; details: 72 h
Summary of the method: as §1

Jily = experiment: MTS proliferation assay; type: cell-based; details: 72 h
Summary of the method: as §1

MRC5 = experiment: MTS proliferation assay; type: cell-based; details: MRC5, 72 h
Summary of the method: as §1

[1] = Hoechst 33342 nuclear staining; type: cell-based; details: for Hoechst 33342 nuclear staining score, H460: H460 cells; for Hoechst 33342 nuclear staining score, HeLa: HeLa cells; for Hoechst 33342 nuclear staining score, Jily: Jily cells; for Hoechst 33342 nuclear staining score, Jurkat: Jurkat cells; for Hoechst 33342 nuclear staining score, MRC5: MRC5 cells; for Hoechst 33342 nuclear staining score, PBLs: key: 0: no activity; 1: weak activity comprising less than 50% of the cells; 2: strong activity comprising more than 50% of the cells;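 for all read-outs here: apoptotic nuclei scored 0 none 1 weak under 50% of cells 2 strong over 50% of cells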
Summary of the method: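 Cells were plated in 96 well tissue culture plates in 80 μl complete medium, with 3-5*10^3 cells per well for adherent lines and 8-10*10^3 for suspension lines. Adherent cells spread for 24 h before treatment, while suspension cells were treated right after seeding. Compounds were added in 20 μl complete medium containing max 5% DMSO.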

| SMILES | IC50 (Jily) | Hoechst 33342 nuclear staining score, H460 ([1]; conc 0.1) | Hoechst 33342 nuclear staining score, H460 ([1]; conc 0.3) | Hoechst 33342 nuclear staining score, H460 ([1]; conc 1) | Hoechst 33342 nuclear staining score, H460 ([1]; conc 3) | Hoechst 33342 nuclear staining score, HeLa ([1]; conc 0.1) | Hoechst 33342 nuclear staining score, HeLa ([1]; conc 0.3) | Hoechst 33342 nuclear staining score, HeLa ([1]; conc 1) | Hoechst 33342 nuclear staining score, HeLa ([1]; conc 3) | Hoechst 33342 nuclear staining score, Jily ([1]; conc 0.1) | Hoechst 33342 nuclear staining score, Jily ([1]; conc 0.3) | Hoechst 33342 nuclear staining score, Jily ([1]; conc 1) | Hoechst 33342 nuclear staining score, Jily ([1]; conc 3) | Hoechst 33342 nuclear staining score, Jurkat ([1]; conc 0.1) | Hoechst 33342 nuclear staining score, Jurkat ([1]; conc 0.3) | Hoechst 33342 nuclear staining score, Jurkat ([1]; conc 1) | Hoechst 33342 nuclear staining score, Jurkat ([1]; conc 3) | Hoechst 33342 nuclear staining score, MRC5 ([1]; conc 0.1) | Hoechst 33342 nuclear staining score, MRC5 ([1]; conc 0.3) | Hoechst 33342 nuclear staining score, MRC5 ([1]; conc 1) | further results |
| --- | --- | --- | --- | --- | --- | --- | --- | --- | --- | --- | --- | --- | --- | --- | --- | --- | --- | --- | --- | --- | --- |
| COc1cc(-c2cc(-c3cccnc3)cn2S(=O)(=O)/C=C/c2ccccc2)cc(OC)c1OC [Example 89] | > 1000 nM | 0 | 0 | 0 | 0 | 0 | 0 | 0 | 0 | 0 | 0 | 0 | 1 (weak activity comprising less than 50% of the cells) | 0 | 0 | 0 | 1 (weak activity comprising less than 50% of the cells) | 0 | 0 | 0 | IC50 (HeLa): > 1000 nM; IC50 (Jurkat): > 1000 nM; IC50 (MRC5): > 1000 nM; Hoechst 33342 nuclear staining score, MRC5 ([1]; conc 3): 0; Hoechst 33342 nuclear staining score, PBLs ([1]; conc 0.1): 0; Hoechst 33342 nuclear staining score, PBLs ([1]; conc 0.3): 0; Hoechst 33342 nuclear staining score, PBLs ([1]; conc 1): 0; Hoechst 33342 nuclear staining score, PBLs ([1]; conc 3): 0 |
| COc1cc(-c2cc(-c3cccnc3)cn2S(=O)(=O)c2cccs2)cc(OC)c1OC [Example 90] | < 1000 nM | 0 | 0 | 0 | 2 (strong activity comprising more than 50% of the cells) | 0 | 0 | 0 | 2 (strong activity comprising more than 50% of the cells) | 0 | 0 | 1 (weak activity comprising less than 50% of the cells) | 1 (weak activity comprising less than 50% of the cells) | 0 | 0 | 2 (strong activity comprising more than 50% of the cells) | 2 (strong activity comprising more than 50% of the cells) | 0 | 0 | 0 | IC50 (HeLa): > 1000 nM; IC50 (Jurkat): < 1000 nM; IC50 (MRC5): > 1000 nM; Hoechst 33342 nuclear staining score, MRC5 ([1]; conc 3): 0; Hoechst 33342 nuclear staining score, PBLs ([1]; conc 0.1): 0; Hoechst 33342 nuclear staining score, PBLs ([1]; conc 0.3): 0; Hoechst 33342 nuclear staining score, PBLs ([1]; conc 1): 0; Hoechst 33342 nuclear staining score, PBLs ([1]; conc 3): 0 |
| COc1cc(-c2cc(-c3cccnc3)cn2S(=O)(=O)c2ccc([N+](=O)[O-])cc2)cc(OC)c1OC [Example 92] | > 1000 nM | 0 | 0 | 0 | 1 (weak activity comprising less than 50% of the cells) | 0 | 0 | 0 | 0 | 0 | 0 | 0 | 2 (strong activity comprising more than 50% of the cells) | 0 | 0 | 0 | 2 (strong activity comprising more than 50% of the cells) | 0 | 0 | 0 | IC50 (HeLa): > 1000 nM; IC50 (Jurkat): > 1000 nM; IC50 (MRC5): > 1000 nM; Hoechst 33342 nuclear staining score, MRC5 ([1]; conc 3): 0; Hoechst 33342 nuclear staining score, PBLs ([1]; conc 0.1): 0; Hoechst 33342 nuclear staining score, PBLs ([1]; conc 0.3): 0; Hoechst 33342 nuclear staining score, PBLs ([1]; conc 1): 0; Hoechst 33342 nuclear staining score, PBLs ([1]; conc 3): 0 |
| COc1cc(-c2cc(-c3cccnc3)cn2S(=O)(=O)c2ccc(N)cc2)cc(OC)c1OC [Example 93] | > 1000 nM | 0 | 0 | 0 | 0 | 0 | 0 | 0 | 0 | 0 | 0 | 0 | 0 | 0 | 0 | 0 | 0 | 0 | 0 | 0 | IC50 (HeLa): > 1000 nM; IC50 (Jurkat): > 1000 nM; IC50 (MRC5): > 1000 nM; Hoechst 33342 nuclear staining score, MRC5 ([1]; conc 3): 0; Hoechst 33342 nuclear staining score, PBLs ([1]; conc 0.1): 0; Hoechst 33342 nuclear staining score, PBLs ([1]; conc 0.3): 0; Hoechst 33342 nuclear staining score, PBLs ([1]; conc 1): 0; Hoechst 33342 nuclear staining score, PBLs ([1]; conc 3): 0 |
| COc1ccc(S(=O)(=O)n2cc(CNc3ccc(N4CCOCC4)cc3)cc2-c2cc(OC)c(OC)c(OC)c2)cc1 [Example 94, 1-p-Methoxyphenylsulfonyl-4-p-morpholinophenylaminomethyl-2-(3,4,5-trimethoxyphenyl)-pyrrole] | < 200 nM | 0 | 2 (strong activity comprising more than 50% of the cells) | 2 (strong activity comprising more than 50% of the cells) | 2 (strong activity comprising more than 50% of the cells) | 0 | 2 (strong activity comprising more than 50% of the cells) | 2 (strong activity comprising more than 50% of the cells) | 2 (strong activity comprising more than 50% of the cells) | 0 | 2 (strong activity comprising more than 50% of the cells) | 2 (strong activity comprising more than 50% of the cells) | 2 (strong activity comprising more than 50% of the cells) | 0 | 2 (strong activity comprising more than 50% of the cells) | 2 (strong activity comprising more than 50% of the cells) | 2 (strong activity comprising more than 50% of the cells) | 0 | 0 | 0 | IC50 (HeLa; Homo sapiens): < 200 nM; IC50 (Jurkat; Homo sapiens): < 200 nM; IC50 (MRC5; Homo sapiens): < 200 nM; Hoechst 33342 nuclear staining score, MRC5 ([1]; conc 3): 2 (strong activity comprising more than 50% of the cells); Hoechst 33342 nuclear staining score, PBLs ([1]; conc 0.1): 0; Hoechst 33342 nuclear staining score, PBLs ([1]; conc 0.3): 0; Hoechst 33342 nuclear staining score, PBLs ([1]; conc 1): 0; Hoechst 33342 nuclear staining score, PBLs ([1]; conc 3): 0 |
| COc1ccc(S(=O)(=O)n2cc(CNc3ccc(N4CCOCC4)cc3)cc2-c2cc(OC)ccc2OC)cc1 [Example 95] | > 1000 nM | 0 | 0 | 0 | 2 (strong activity comprising more than 50% of the cells) | 0 | 0 | 0 | 2 (strong activity comprising more than 50% of the cells) | 0 | 0 | 0 | 2 (strong activity comprising more than 50% of the cells) | 0 | 0 | 0 | 2 (strong activity comprising more than 50% of the cells) | 0 | 0 | 0 | IC50 (HeLa): > 1000 nM; IC50 (Jurkat): > 1000 nM; IC50 (MRC5): > 1000 nM; Hoechst 33342 nuclear staining score, MRC5 ([1]; conc 3): 0; Hoechst 33342 nuclear staining score, PBLs ([1]; conc 0.1): 0; Hoechst 33342 nuclear staining score, PBLs ([1]; conc 0.3): 0; Hoechst 33342 nuclear staining score, PBLs ([1]; conc 1): 0; Hoechst 33342 nuclear staining score, PBLs ([1]; conc 3): 0 |
